Values joined by “and” are separate entries in the source; they are usually repeats but may differ in a detail not shown here. Identical values can stand only once.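 Cultured in 96-well plates, cells were exposed to test compound for 48 hours across five concentrations. GI50 = concentration required for 50% inhibition of growth. TGI: total growth inhibition.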
Legend:
Assay in all cases: growth of human tumour cells (NCI), 48 h
786-0 renal = system: 786-0 renal
ACHN renal = system: ACHN renal
HOP-62 NSCLC = system: HOP-62 NSCLC
MCF7 breast = system: MCF7 breast
MDA-MB-435 = system: MDA-MB-435
MDA-N = system: MDA-N
NCI-H522 lung = system: NCI-H522 lung
RXF 393 renal = system: RXF 393 renal
SF-268 CNS = system: SF-268 CNS
SN12C renal = system: SN12C renal
MALME-3M melanoma = system: MALME-3M melanoma
MDA-MB-231 breast = system: MDA-MB-231 breast
OVCAR-4 ovarian = system: OVCAR-4 ovarian
SK-MEL-2 melanoma = system: SK-MEL-2 melanoma

| SMILES | TGI (786-0 renal) | TGI (ACHN renal) | TGI (HOP-62 NSCLC) | TGI (MCF7 breast) | TGI (MDA-MB-435) | TGI (MDA-N) | TGI (NCI-H522 lung) | TGI (RXF 393 renal) | TGI (SF-268 CNS) | TGI (SN12C renal) | TGI (MALME-3M melanoma) | TGI (MDA-MB-231 breast) | TGI (OVCAR-4 ovarian) | TGI (SK-MEL-2 melanoma) | GI50 (MALME-3M melanoma) | GI50 (MCF7 breast) | GI50 (MDA-MB-231 breast) | GI50 (RXF 393 renal) | GI50 (SF-268 CNS) | GI50 (SN12C renal) |
| --- | --- | --- | --- | --- | --- | --- | --- | --- | --- | --- | --- | --- | --- | --- | --- | --- | --- | --- | --- | --- |
| O=C(C/C=C/c1ccccc1)c1ccccc1 | 48.8 µM | 35.8 µM | 73.7 µM | 32.7 µM | 42.5 µM | 50.9 µM | 34.1 µM | 34 µM | 56.8 µM | 60.9 µM |  |  |  |  |  |  |  |  |  |  |
| O=C1/C(=C/c2ccc(Cl)cc2)CSC/C1=C\c1ccc(Cl)cc1 | 9.73 µM | 12.6 µM | 16.2 µM | 13.1 µM |  | 10.6 µM | 15.2 µM | 3.36 µM | 22 µM | 9.52 µM | 36.9 µM | 27.2 µM | 14.1 µM | 37.8 µM |  |  |  |  |  |  |
| CCOC(=O)C1(Br)S(=O)(=O)OCCOS1(=O)=O | > 100 µM | > 100 µM | > 100 µM |  |  |  | > 100 µM | > 100 µM | > 100 µM | > 100 µM | > 100 µM |  | > 100 µM | > 100 µM |  |  |  |  |  |  |
| O=c1c2c(c1=O)-c1ccccc1CN2 | > 100 µM | > 100 µM | > 100 µM |  |  |  | > 100 µM | > 100 µM | > 100 µM | > 100 µM | > 100 µM |  | > 100 µM | > 100 µM |  |  |  |  |  |  |
| CC1(C)OC(=O)C(Cc2ccccc2)(Cc2ccccc2)C(=O)O1 | > 100 µM | > 100 µM | > 100 µM | > 100 µM |  | > 100 µM | > 100 µM | > 100 µM | > 100 µM | > 100 µM | > 100 µM | > 100 µM | > 100 µM | > 100 µM |  |  |  |  |  |  |
| CC(=O)OCC1OC(n2nc(Cc3ccccc3)c(=S)[nH]c2=S)C(OC(C)=O)C(OC(C)=O)C1OC(C)=O (centres undefined) | > 100 µM | > 100 µM | 51.4 µM | 72.7 µM | 36.7 µM |  | 47.5 µM | 44.6 µM | 52.2 µM | 55.3 µM | 83.9 µM | 30.6 µM | 39.6 µM | 35.1 µM |  |  |  |  |  |  |
| COc1cccc(-c2c(-c3ccccc3)[nH]c(C)c2C(=O)ONC(=O)c2ccccc2)c1 | 15.5 µM | 10.9 µM | 10 µM | 24 µM | 13.7 µM |  | 14.2 µM | 17.1 µM | 22 µM | 12.8 µM | 28.4 µM | 22.9 µM | > 24.5 µM | 23.6 µM |  |  |  |  |  |  |
| COC(=O)C1=C(CCC[C@H](C)O[Si](C)(C)C(C)(C)C)NC(=O)N2[C@@H](CCO)CC[C@H]12 | 29.1 µM | 30.3 µM | 27.7 µM |  | 39.7 µM |  | 19.2 µM | 27.5 µM | 28.6 µM | 29.2 µM | 25.9 µM | 31.9 µM | 38.2 µM |  |  |  |  |  |  |  |
| CCCCOC(=O)c1cc(C(=CCC[C@H]2CC[C@@]3(C)[C@@H](CC[C@@H]4[C@@H]3CC[C@]3(C)[C@@H](C(C)CCCC(C)C)CC[C@@H]43)C2)c2cc(Cl)c(O)c(C(=O)OCCCC)c2)cc(Cl)c1O (some centres undefined) | > 50 µM |  | > 50 µM |  | > 50 µM | > 50 µM |  |  | > 50 µM | > 50 µM |  | > 50 µM | > 50 µM | > 50 µM |  |  |  |  |  |  |
| COc1cccc(NC(=O)C(=O)C2C=CCS2(=O)=O)c1 (centres undefined) | > 100 µM | > 100 µM | > 100 µM |  |  |  | > 100 µM | > 100 µM | > 100 µM | > 100 µM | > 100 µM |  | > 100 µM | > 100 µM |  |  |  |  |  |  |
| O=P(O)(CN1CCN(CP(=O)(O)c2ccccc2)CCN(CP(=O)(O)c2ccccc2)CC1)c1ccccc1 | > 100 µM | > 100 µM | > 100 µM | > 100 µM | > 100 µM | > 100 µM |  | > 100 µM | > 100 µM |  | > 100 µM |  | > 100 µM |  |  |  |  |  |  |  |
| CCCC(=O)NC(Nc1ccc(S(=O)(=O)Nc2ccc(OC)nn2)cc1)(C(F)(F)F)C(F)(F)F | > 100 µM | > 100 µM | > 100 µM |  | > 100 µM | > 100 µM | > 100 µM | > 100 µM | > 100 µM | > 100 µM | > 100 µM | > 100 µM | > 100 µM | > 100 µM |  |  |  |  |  |  |
| C=C1Cc2cc(OC)c(OC)c(OC)c2-c2ccc(SC)c(=O)cc21 | 1.8 µM | 6.2 µM | 7.8 µM |  |  |  | < 0.01 µM | 10.4 µM | 1.42 µM | 1.6 µM | 2.57 µM |  | 18.9 µM | < 0.01 µM |  |  |  |  |  |  |
| COc1cc2c[n+](C)c3c4cc(OC)c(OC)cc4ccc3c2cc1OC | > 100 µM | > 100 µM | > 100 µM | > 100 µM | > 100 µM |  | 42.2 µM | > 100 µM | > 100 µM and 37.6 µM | > 100 µM | > 100 µM | > 100 µM | > 100 µM | > 100 µM | > 100 µM and 21.7 µM | 35.6 µM and 8.35 µM | > 100 µM and 18.6 µM | > 100 µM and 28.5 µM | 22.6 µM and 3.32 µM | 30.4 µM and 3.98 µM |
| N#Cc1ccc(C2NN=CC23C(=O)c2ccccc2OC3c2ccccc2)cc1 (centres undefined) | > 100 µM | > 100 µM | > 100 µM | 87.4 µM | > 100 µM |  | 54.4 µM | > 100 µM | > 100 µM | > 100 µM | > 100 µM | > 100 µM | > 100 µM | > 100 µM |  |  |  |  |  |  |
| COC(=O)C1(C)NCCc2c1[nH]c1ccccc21 (centres undefined) | > 100 µM |  | > 100 µM |  |  |  | > 100 µM | > 100 µM | > 100 µM | > 100 µM | > 100 µM |  | > 100 µM | > 100 µM |  |  |  |  |  |  |
| O=C1c2ccccc2C(=O)c2c(NCCCN3CCOCC3)ccc(NCCCN3CCOCC3)c21 | 16.7 µM | 19.5 µM | 13.1 µM | 24.4 µM |  | 13.6 µM | 2.35 µM | 27.1 µM | 20.9 µM | 17.2 µM | 27.7 µM | 13.8 µM | > 100 µM | 25.5 µM |  |  |  |  |  |  |
| CCCN(CCC)C1=Nc2ccccc2-n2cnnc2C1 | > 100 µM | > 100 µM | > 100 µM |  |  |  | > 100 µM | > 100 µM | > 100 µM | > 100 µM | > 100 µM |  | > 100 µM | > 100 µM |  |  |  |  |  |  |
| NC(Cc1ccc(B(O)O)cc1)C(=O)NC(CO)CO (centres undefined) | > 100 µM | > 100 µM | > 100 µM |  | > 100 µM | > 100 µM | > 100 µM | > 100 µM | > 100 µM | > 100 µM | > 100 µM | > 100 µM | > 100 µM | > 100 µM |  |  |  |  |  |  |
| O=c1ccnc2ccc3n[nH][nH]c3c12 | > 100 µM | > 100 µM | > 100 µM |  |  |  |  | > 100 µM | > 100 µM | > 100 µM | > 100 µM |  | > 100 µM | > 100 µM |  |  |  |  |  |  |
| O=c1c2ccccc2[nH]c2c(Cl)cc(Cl)c(N3CCCCC3)c12 | > 10 µM | 65.7 µM | > 100 µM | > 100 µM | 55.8 µM | 63.1 µM | 64.3 µM |  |  | 55.8 µM |  | > 100 µM | > 100 µM | 59.1 µM |  |  |  |  |  |  |
| CC(O)[C@@]1(c2ccccc2)CC2(CCN(C)CC2)O[C@H]1C (some centres undefined) | > 100 µM | > 100 µM | > 100 µM | > 100 µM | > 100 µM |  | > 100 µM | > 100 µM | > 100 µM |  | > 100 µM | > 100 µM | > 100 µM | > 100 µM |  |  |  |  |  |  |
| NC(=O)C(=CNC(=S)Nc1cccc(C(F)(F)F)c1)C(N)=O | > 100 µM | > 100 µM | > 100 µM | > 100 µM | > 100 µM | > 100 µM |  | > 100 µM | > 100 µM | > 100 µM |  | > 100 µM | > 100 µM | > 100 µM |  |  |  |  |  |  |
| CN(C(=O)c1ccco1)C(=S)N1CCN(c2ccccn2)CC1 | > 100 µM | > 100 µM | > 100 µM |  |  |  | > 100 µM | > 100 µM | > 100 µM | > 100 µM | > 100 µM |  | > 100 µM | > 100 µM |  |  |  |  |  |  |
| N/C(=N\S(=O)(=O)c1cc(Cl)c(Oc2ccc([N+](=O)[O-])cc2Cl)c(Cl)c1)Nc1ccc(Cl)cc1 | 35.1 µM | 30.5 µM |  |  | 33.6 µM | 34.8 µM | > 100 µM | 31.8 µM | > 100 µM | 33.3 µM | > 100 µM | 32.9 µM | 30.4 µM | 36.2 µM |  |  |  |  |  |  |
| COC(=O)C1C=CCON2CCc3c(n(S(=O)(=O)c4ccccc4)c4ccccc34)C12 (centres undefined) | > 100 µM | > 100 µM | > 55.5 µM |  |  |  | > 62.5 µM | > 100 µM | > 100 µM | > 100 µM | > 100 µM |  | > 31.6 µM | > 100 µM |  |  |  |  |  |  |
| COc1cc(C2c3c(ccc4ccccc34)C(=O)C3CCC(=O)N32)cc(OC)c1O (centres undefined) | > 25 µM | > 25 µM | > 25 µM | > 25 µM | > 25 µM | > 25 µM |  | > 25 µM |  | > 25 µM |  |  | > 25 µM | > 25 µM |  |  |  |  |  |  |
| S=C=NC1CCC(c2cc3ccccc3s2)(N2CCCCC2)CC1 (centres undefined) | 3.26 µM | 3.34 µM |  | 5.72 µM | 3.19 µM | 3.73 µM | 3.23 µM | 3.16 µM | 4.3 µM | 3.77 µM | 3.04 µM |  | 3.7 µM |  |  |  |  |  |  |  |

Reference: PubChem BioAssay (NCI)
